From patent US9701709B2 (REATA PHARMACEUTICALS, INC., priority 2012, dated 2017)
Read-outs that look alike come from different tables or passages of the source.

What was measured:
[1] = test system: human NQO1 ARE (Nrf2) in HuH-7 human hepatoma cells; experiment: NQO1-ARE luciferase reporter in HuH-7; assay type: cell-based; details: 15.6 nM, 18 h
Text: The first luciferase reporter tested was under the control of a single ARE derived from the promoter of the human NQO1 gene, which allows for quantitative assessment of the endogenous activity of the Nrf2 transcription factor in cultured mammalian cells. […] The NQO1-ARE-luciferase reporter plasmid was constructed by inserting the human NQO1-ARE ([NT] ID NO: 31) into the pLuc-MCS vector using HindIII/XhoI cloning sites (GenScript Corp., Piscataway, N.J.). […] Firefly and Renilla luciferase activity was assayed by Dual-Glo Luciferase Assay (cat # E2920, Promega), and the luminescence signal was measured on an L-Max II luminometer (Molecular Devices). Firefly luciferase activity was normalized to the Renilla activity, and fold induction over a vehicle control (DMSO) of normalized Firefly activity was calculated. […] Values represent the average of three independent experiments.

[2] = test system: NQO1 and HMOX1 protein in BV2 cells; experiment: Western blot of Nrf2 target proteins in BV2; assay type: cell-based, mouse; details: BV2, 24 h
Procedure: SH-SY5Y cells were plated in 6-well plates at a density of 4×10^5 cells per well. BV-2 cells were plated in 6-well plates at a density of 2.5×10^4 cells per well. […] Following treatment, cells were washed twice with cold PBS and harvested in lysis buffer. Cells were sonicated and debris was cleared by centrifugation (10 min @ 18,000 rcf, Beckman Coulter, microfuge 18 centrifuge). Total protein in supernatant was quantified using Bio-Rad protein reagent with BSA as a standard. Equal amounts of total cellular protein were separated on SDS-PAGE, and proteins were transferred to nitrocellulose membrane. Membranes were blocked for 1 hour in TBST (1×TBS with 0.1% Tween-20) containing 5% milk, washed 3 times with TBST, and incubated with primary antibodies overnight at 4° C. NQO1 antibody was from Abcam (#AB2346); HMOX1 (HO-1) antibody was from Santa Cruz (#sc-10789); actin antibody was from Millipore (#MAB 1501). After washing with TBST, secondary antibodies were added in TBST+5% milk for 1 h at room temperature. AffiniPure goat anti-rabbit or anti-mouse IgG secondary antibodies were from Jackson ImmunoResearch (catalog #111-035-144 and #115-035-146, respectively). Membranes were washed in TBST, developed using ECL, and exposed to X-ray film. […] HMOX1 protein was not detected in untreated or RTA 408-treated SH-SY5Y cells. […] The same amount of 63170 (54.6 nM) was required.

[3] = test system: NADPH levels in HCT-116 cells; experiment: WST-1 absorbance as marker of NADPH in HCT-116; assay type: cell-based; details: HCT-116, 24 h
Text: WST-1 absorbance is commonly used to assess cell viability by measuring glycolytic production of NAD(P)H by viable cells. Therefore, in situations where NADPH production increases in the absence of any effect on cell viability, WST-1 absorbance also increases (Berridge et al. Biochemica 4:14-19, 1996, which is incorporated herein by reference).

ovalbumin-induced asthma = experiment: Ovalbumin-induced asthma in mice; assay type: in vivo, mouse
Text: Mice were sensitized with an IP injection of ovalbumin and aluminum hydroxide on Day 0 and Day 14 and challenged intranasally with ovalbumin in saline on Days 14, 25, 26, and 27. […] An increase in the number of T cells and B cells was also observed in the vehicle-treated mice.

[4] = Oral pharmacokinetics in rats; assay type: in vivo, rat; details: oral suspension, 10 to 100 mg/kg
Procedure: Measurements were performed on TQD and QToF mass spectrometers (Waters).
Following oral administration of a suspension formulation at doses of 10 to 100 mg/kg, maximal concentrations were observed within 1 to 2 h in mice, and within 1 to 24 h in rats and monkeys.

CYP2B6 = CYP2B6 (Homo sapiens, UniProt P20813); experiment: CYP450 inhibition in pooled human liver microsomes, CYP2B6; assay type: in vitro ADME; details: highest concentration tested (3 μM)
Sequence of CYP2B6 (P20813 whole entry): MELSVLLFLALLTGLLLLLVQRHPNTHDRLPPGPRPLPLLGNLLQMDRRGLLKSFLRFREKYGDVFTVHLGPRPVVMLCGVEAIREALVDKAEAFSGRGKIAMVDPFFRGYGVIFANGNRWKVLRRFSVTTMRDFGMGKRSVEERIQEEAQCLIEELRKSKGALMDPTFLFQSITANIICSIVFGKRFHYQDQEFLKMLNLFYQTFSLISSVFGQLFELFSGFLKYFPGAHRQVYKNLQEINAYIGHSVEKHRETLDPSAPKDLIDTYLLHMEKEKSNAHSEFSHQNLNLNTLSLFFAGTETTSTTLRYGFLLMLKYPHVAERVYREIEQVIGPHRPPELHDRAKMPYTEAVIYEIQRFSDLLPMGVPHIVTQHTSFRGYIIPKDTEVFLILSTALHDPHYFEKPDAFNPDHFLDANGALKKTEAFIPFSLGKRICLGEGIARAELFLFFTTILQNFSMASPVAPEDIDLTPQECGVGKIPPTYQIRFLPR
Text: In addition, there was little or no evidence of metabolism-dependent inhibition of any of the enzymes tested.

[5] = test system: C4-2B-Luc and DU145-Luc human prostate cancer tumors; experiment: Pilot in vivo prostate tumor model with ionizing radiation (luciferase imaging); set-up: species or system mouse; details: 17.5 mg/kg i.p. plus 18 Gy; n=1
Procedure: The colors indicated by the arrows are indicative of intensity with the intensities being represented by red, yellow, green, and blue in order from highest to lowest intensity.
After the successful results of the in vitro assay, a pilot in vivo assay was carried out using LNCaP/C4-2B and DU145 human prostate cancer engineered to express firefly luciferase (hereafter referred to as C4-2B-Luc and DU145-Luc, respectively). Of note, both of these cell lines grow in an androgen-independent fashion. Cells were cultured in RPMI 1640 supplemented with 10% FBS. Cells were harvested using TrypLE Express (Invitrogen) and washed in PBS and counted. Cells were reconstituted in PBS to arrive at a final concentration of 3×10^6 cells per 30 μL (unless otherwise stated) and aliquoted in separate tubes. Growth factor-reduced Matrigel (BD Bioscience) was thawed overnight at +4° C. and transferred into the tubes in 30 μL aliquots. The cell/Matrigel solutions were transferred to the vivarium and mixed right before injection at a 1:1 ratio. Each mouse (n=1 per group for a total of three animals) received a single subcutaneous injection of the tumor cells. Tumors were pre-established for 4 weeks. […] Tumor progression was monitored weekly via live imaging. […] For standardization, minimal exposure time necessary to image control tumor was determined and all animals were imaged under these conditions. […]

[6] = Distribution into mouse tissues after PO QD×3; assay type: in vivo; details: mice PO QD×3 25 mg/kg, 6 h after last dose, semi-quantitative
Procedure: Semi-quantitative analysis of drug content was performed.

[7] = test system: bleomycin-induced pulmonary fibrosis
[8] = test system: radiation-induced oral mucositis; experiment: Radiation-induced oral mucositis in hamsters
[9] = 3 and 10 mg/kg daily for 28 days

## CC1(C)CC[C@]2(NC(=O)C(C)(F)F)CC[C@]3(C)[C@H](C(=O)C=C4[C@@]5(C)C=C(C#N)C(=O)C(C)(C)[C@@H]5CC[C@]43C)[C@@H]2C1 [RTA 408, N-((4aS,6aR,6bS,8aR,12aS,14aR,14bS)-11-cyano-2,2,6a,6b,9,9,12a-heptamethyl-10,14-dioxo-1,2,3,4,4a,5,6,6a,6b,7,8,8a,9,10,12a,14,14a,14b-octadecahydropicen-4a-yl)-2,2-difluoropropanamide]
[1]
  Induction of luciferase activity, NQO1-ARE reporter: ~2 fold
[2]
  NQO1 and HMOX1 protein levels: increased NQO1 and HMOX1 protein levels at concentrations up to 125 nM
[3]
  WST-1 absorbance (marker of NADPH): increased WST-1 absorbance in a dose-dependent manner
ovalbumin-induced asthma; 30 mg/kg
  B cells within the airways: significantly reduced the number and percentage of B cells within the airways
ovalbumin-induced asthma; 3 and 30 mg/kg
  Macrophages detected in the airways: significantly reduced the number of macrophages
[4]
  Time of maximal concentrations: 1 to 24 h
CYP2B6
  inhibition at 3 µM: < 50%
[5]
  Tumor image (luciferase), RTA 408 plus ionizing radiation: no visible tumor on Day 21
[6]; brain, read-out: Drug content, Brain
  concentration at 6 h: 1080 nM
[6]; kidney, read-out: Drug content, Kidney
  concentration at 6 h: 1600 nM
[6]; liver, read-out: Drug content, Liver
  concentration at 6 h: 985 nM
[6]; lung, read-out: Drug content, Lung
  concentration at 6 h: 533 nM
[6]; plasma, read-out: Drug content, Plasma
  concentration at 6 h: 51 nM
[6]; whole blood, read-out: Drug content, Whole Blood
  concentration at 6 h: 679 nM
[7]; 3 mg/kg
  Animals with Mild trichrome staining intensity: 0
  Animals with Minimal trichrome staining intensity: 0
  Animals with Moderate trichrome staining intensity: 7
[7]; 10 mg/kg
  Animals with Mild trichrome staining intensity: 4
  Animals with Minimal trichrome staining intensity: 3
  Animals with Moderate trichrome staining intensity: 1
[7]; 30 mg/kg daily oral gavage
  Tolerability of 30-mg/kg dose (stopped on day 14): excessive dehydration and diarrhea
[7]; [9]
  PMN cell infiltration into the lungs: significantly suppressed polymorphonuclear (PMN) cell infiltration into the lungs
  Reduction in hydroxyproline deposition: 10%-20%
[7]; rats exposed to bleomycin
  Lung Nrf2 target enzyme activity: significantly and dose-dependently increased NQO1, Txnrd, Gsr, and Gst enzyme activity
[8]; 30 mg/kg and 100 mg/kg BID×20
  Reduction in ulceration: ≤ 36%
[8]; 100 mg/kg
  Euthanasia due to weight loss in excess of 20%: two out of eight hamsters in the 100 mg/kg dose group were euthanized on Day 2
[8]; 30 and 100 mg/kg twice daily
  Duration of ulcerative mucositis: significant reduction in the duration of ulcerative mucositis
